From patent publication US7429482B2, “Screening tools for discovery of novel anabolic agents” (United States of America as represented by the Department …, priority 2005, dated 2008)
Entries after “also recorded” stand apart in the source; their conditions may differ.

What was measured:
[1] = test system: MAFbx; test: MAFbx expression in gastrocnemius of rats infused with dexamethasone with or without testosterone (qPCR); type: in vivo; conditions: rat, dexamethasone 0.7 mg/kg/day infusion, 7 days
Description: Muscle was flash frozen on dry ice after excision. Total RNA was isolated by phenol:chloroform extraction (Chomczynski and Sacchi, Anal Biochem 162: 156-159, 1987) and further enriched using RNAeasy minicolumns (Qiagen) with digestion on the column with RNAse-free DNAse (Qiagen).
RNA was quantified by absorbance at 260 nm. One microgram of total RNA was used to prepare cDNA libraries using the High Capacity cDNA Archive Kit (Applied Biosystems, Foster City, Calif.). Libraries were diluted 25-fold with water. Real time PCR was performed using Taqman 2×PCR buffer (Applied Biosystems) and an Applied Biosystems 7500 thermocycler. Data were normalized relative to that for 18S RNA. Relative changes in expression were determined using the 2^−ΔΔCt method. Taqman Assay on Demand probes (Applied Biosystems) were used for all assays except rat 18S RNA, which was quantified using the following […]: Forward: […] (SEQ ID NO:15); Reverse: […] (SEQ ID NO:16); Probe: FAM-[…] (SEQ ID NO:17; Labeled with FAM and non-fluoresent quencher, NFQ, at 5′ and 3′ ends, repsectively).
Male Wistar rats weighing 250 gm were anesthetized with ketamine/xylazine followed by implantation Alzet miniosmotic pumps administering vehicle (propylene glycocol), dexamethasone (0.7 mg/kg/day), or dexamethasone plus testosterone (28 mg/kg/day). […]

[2] = test system: human MAFbx promoter; test: Human MAFbx promoter luciferase reporter assay in C2C12 / C2C12.AR cells; type: cell-based
Description: The reporter genes pMAF3.1, pMAF2.4, pMAF948, pMAF400, and pMAF400-241 express firefly luciferase under the control of promoter regions of the human MAFbx gene and are described in Example 1. The rARC562G vector, encoding rat AR with a C562->G mutation in the first zinc binding module that disrupts binding of AR to DNA was described by Palvimo et al. (Mol Endocrinol 7: 1399-1407, 1993) pAR.4RKM (expressing AR with 4 R/K->M mutations in the nuclear localization sequence that is unable to enter the nucleus) and pAR.ABC (lacking the ligand binding domain) were described by Zhou et al. (J Biol Chem 269: 13115-13123, 1994). The pBabe.puro retroviral backbone described by Morgenstern and Land (Nucleic Acids Res 18: 3587-3596, 1990) was modified by introduction of a Not1 site. The ARE reporter gene expressing firefly luciferase under control of the MMTV hormone response element, and pSP72hAR-1, containing an insert of the full-length cDNA clone of the human AR, were provided by Dr. Diane Robins (University of Michigan). pRL-CMV expressing Renilla luciferase was from Promega (Madison, Wis.).
C2C12 cells (American Type Culture Collection, Manassas, Va.) were maintained in Dulbeco's modified Eagle's Medium (DMEM) containing 10% fetal bovine serum (FBS) and penicillin (100 U/ml)/streptomycin (100 μg/ml) (growth medium). Cells were incubated at 37° C. in humidified air containing 10% CO2. 293T cells (American Type Culture Collection) were maintained in growth medium as above. Transfection was achieved using Lipofectamine-Plus (Invitrogen, Carlsbad, Calif.) using 200 ng total DNA per well.
Cells were seeded into wells of 24-well plates (5×10^5 cells/well) then maintained overnight in DMEM with 10% CDS-FBS. Cells were co-transfected with the various reporter genes and pRL-CMV. Cells were incubated in the transfection mixture overnight, then covered with DMEM supplemented with 10% charcoal-dextran-stripped FBS (CDS-FBS) and either ethanol (EtOH) or hormones dissolved in EtOH. Cells were maintained for an additional 24 hours, at which time both firefly and renilla luciferase activity were determined using the Dual Luciferase Assay (Promega, Madison, Wis.) and a Berthold 96-well plate luminometer. Firefly luciferase activities were normalized relative to renilla luciferase. Ethanol concentrations were less than 0.1%.

[3] = test system: MAFbx mRNA; test: MAFbx mRNA levels in AR6 / C2C12.AR cells (qPCR); type: cell-based, mouse; conditions: dexamethasone overnight
Description: (A) Rats were administered test agents as indicated in the figure for 7-days, at which time animals were sacrificed and MAFbx expression was determined in gastrocnemius muscles by qPCR. Data are mean values±SEM for at least 8 animals. * p<0.05 vs vehicle, t-test. (B) AR6 cells were seeded into 6-well plates and incubated overnight in growth medium. Medium was replaced with DMEM containing 2% horse serum followed by incubation for an additional 48 hours. Hormones or vehicle (EtOH) were added to the medium and cells were incubated overnight, at which time MAFbx mRNA levels were determined by qPCR and expressed as fold-induction versus levels in cells incubated with EtOH. Data are mean values±SEM for three determinations each performed in triplicate. * p<0.05 vs. EtOH (ANOVA). (C) Effect of testosterone on MAFbx mRNA half-life. C2C12.AR cells were incubated overnight in growth medium supplemented with testosterone or vehicle (EtOH). […] Levels of MAFbx mRNA are expressed as a percentage of those at time zero. […]
RNA was quantified by absorbance at 260 nm. […] Relative changes in expression were determined using the 2^−ΔΔCt method. Taqman Assay on Demand probes (Applied Biosystems) were used for all assays except rat 18S RNA, which was quantified using the following Assay on Demand Probes: Forward: […] […]

[4] = test system: human IGF-1 promoter; test: Human IGF-1 promoter luciferase reporter assay in HepG2 cells; type: cell-based
Description: pREP4.hAR, expressing full length human AR, and pCMV.Sport.β-Gal, expressing β-galactosidase under a CMV promoter, were as described (Zhao et al., Steroids 69: 357-366, 2004). pcDNA5.rGR, expressing rat glucocorticoid receptor, was provided by Dr. Diane Robins (University of Michigan). The rARC562G vector expressing rat AR with a C562G mutation in the DBD, which results in a loss of DNA binding. The IGF-1 reporter genes pOLuc.1630, pOLuc1300, pOLuc926, pOLuc 320 were provided by Dr. Peter Rotwein (Oregon Health & Science University). These reporters expressed firefly luciferase under the control of 320 to 1630 bases upstream of the transcriptional start site of the human IGF-1 promoter as described in (Kim et al., Mol Endocrinol 5: 1964-1972, 1991). pEGX 4T-1 hAR2, expressing GST fused to the N-terminus of AR DNA-binding domain, was provided by Robert J. Matusik, Ph.D. (Vanderbuilt University Medical Center). pRL-CMV expressing Renilla luciferase was from Promega (Madison, Wis.).
HepG2 cells (ATCC, Bethesda, Md.) were maintained in Dulbecco's modified Eagle's medium (DMEM), supplemented with 10% fetal bovine serum (FBS) and antibiotics (penicillin 100 U/ml, streptomycin 100 μg/ml). Cells were seeded at 5×10^4 cells/per well into wells of 24-well plates containing DMEM supplemented with 10% charcoal-dextran stripped FBS (CDS-FBS). The next day, cells were transfected with a total of 300 ng DNA per well using Lipofectamine Plus (Invitrogen) with plasmids as indicated in the figure legends. Three hours after transfection, cells were covered with DMEM supplemented with 10% CDS-FBS and either hormone dissolved in ethanol, or ethanol, as indicated in the figures. […] After overnight incubation, activities of firefly and Renilla luciferase were determined using the Dual Luciferase Assay system (Promega).
Reporter plasmids expressing firefly luciferase under the control of upstream regions of the IGF-1 promoter were constructed by PCR amplification of segments of interest using primers shown in Table 2, using pOLuc-1630 as a template. The location of each amplified fragment is relative to the transcriptional start site. PCR amplification was conduced using a high fidelity Taq polymerase (Pfx, Invitrogen). PCR products were cloned into pCR2.1-TOPO TA (Invitrogen) and the sequences of the inserts were verified. Inserts were excised with Kpn I and Xho I, and were subcloned into pGL3-Promoter (Promega) at these same sites. PGL3-Promoter expresses firefly luciferase under the control of a minimal promoter.

Row | Structure (SMILES) | increase in expression of MAFbx in gastrocnemius muscle [1] [fold] | increase in luciferase expression of pMAF3.1 reporter ([2]; C2C12.AR cells, dexamethasone) | increase in MAFbx mRNA expression [3] | activation of reporters incorporating ARE2 or both AREs (p3-13a and p3-32) ([4]; HepG2 + GR, dexamethasone) [fold] | induction of luciferase expression, reporters incorporating ARE1 (p3-230 and p3-22) ([4]; HepG2 + GR, dexamethasone) | suppression of reporter under control of 3.1 of the MAFbx upstream promoter ([2]; C2C12 muscle cells, 5 μM) [%] | expression of MAFbx reporter (general statement) ([2]; cells transduced with the MAFbx reporter construct) | activation of the upstream promoter of the human IGF-1 gene ([4]; Hep G2 cells, FIG. 18)
1 | C[C@@H]1C[C@H]2[C@@H]3CCC4=CC(=O)C=C[C@]4(C)[C@@]3(F)[C@@H](O)C[C@]2(C)[C@@]1(O)C(=O)CO [dexamethasone] | ~4 | more than 1.5 fold | approximately 3 fold | 5 | less than 2 fold |  |  | 
2 | C[C@]12COC(=O)C[C@@H]1CC[C@@H]1[C@@H]2CC[C@@]2(C)[C@H]1CC[C@]2(C)O [oxandrolone] |  |  |  |  |  | 15 | does not decrease; also recorded: less effective | does not induce and not
